From the supplement of paper PMC10307832

What was measured:
Assay in all cases: relative viability (nuclei count vs DMSO), 5 days (fraction); higher = more cells survive
Tozasertib + Lapatinib = compound: Cc1cc(Nc2cc(N3CCN(C)CC3)nc(Sc3ccc(NC(=O)C4CC4)cc3)n2)n[nH]1 [Tozasertib] + CS(=O)(=O)CCNCc1ccc(-c2ccc3ncnc(Nc4ccc(OCc5cccc(F)c5)c(Cl)c4)c3c2)o1 [Lapatinib] (partner 2 µM)
Procedure, shortened: (§1)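 Cells from lung cancer lines were seeded into 1536-well plates and, one day later, dosed by pin tool. Treatments were either a single drug or a fixed dose of an anchor drug with five library-drug doses (not always all listed) in √10 steps. After 5 days, nuclei were stained in a one-step fixation (final 0.05% Triton X-100, 1% formaldehyde, 1 ug/ml Hoechst) and counted on 4× images, and relative viability is the treated-to-vehicle nuclei ratio, as the median of duplicate plates.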

Tozasertib + Navitoclax = compound: Cc1cc(Nc2cc(N3CCN(C)CC3)nc(Sc3ccc(NC(=O)C4CC4)cc3)n2)n[nH]1 [Tozasertib] + CC1(C)CCC(c2ccc(Cl)cc2)=C(CN2CCN(c3ccc(C(=O)NS(=O)(=O)c4ccc(N[C@H](CCN5CCOCC5)CSc5ccccc5)c(S(=O)(=O)C(F)(F)F)c4)cc3)CC2)C1 [Navitoclax] (partner 0.5 µM)
Procedure, shortened: as §1

Tozasertib + Bortezomib = compound: Cc1cc(Nc2cc(N3CCN(C)CC3)nc(Sc3ccc(NC(=O)C4CC4)cc3)n2)n[nH]1 [Tozasertib] + CC(C)C[C@H](NC(=O)[C@H](Cc1ccccc1)NC(=O)c1cnccn1)B(O)O [Bortezomib] (partner 0.002 µM)
Procedure, shortened: as §1

Tozasertib + Foretinib = compound: Cc1cc(Nc2cc(N3CCN(C)CC3)nc(Sc3ccc(NC(=O)C4CC4)cc3)n2)n[nH]1 [Tozasertib] + COc1cc2c(Oc3ccc(NC(=O)C4(C(=O)Nc5ccc(F)cc5)CC4)cc3F)ccnc2cc1OCCCN1CCOCC1 [Foretinib] (partner 0.25 µM)
Procedure, shortened: as §1

Tozasertib + Olaparib = compound: Cc1cc(Nc2cc(N3CCN(C)CC3)nc(Sc3ccc(NC(=O)C4CC4)cc3)n2)n[nH]1 [Tozasertib] + O=C(c1cc(Cc2n[nH]c(=O)c3ccccc23)ccc1F)N1CCN(C(=O)C2CC2)CC1 [Olaparib] (partner 8 µM)
Procedure, shortened: as §1

Tozasertib + Alpelisib = compound: Cc1cc(Nc2cc(N3CCN(C)CC3)nc(Sc3ccc(NC(=O)C4CC4)cc3)n2)n[nH]1 [Tozasertib] + Cc1nc(NC(=O)N2CCC[C@H]2C(N)=O)sc1-c1ccnc(C(C)(C)C(F)(F)F)c1 [Alpelisib] (partner 2 µM)
Procedure, shortened: as §1

Tozasertib + Linsitinib = compound: Cc1cc(Nc2cc(N3CCN(C)CC3)nc(Sc3ccc(NC(=O)C4CC4)cc3)n2)n[nH]1 [Tozasertib] + C[C@]1(O)C[C@@H](c2nc(-c3ccc4ccc(-c5ccccc5)nc4c3)c3c(N)nccn32)C1 [Linsitinib] (partner 1 µM)
Procedure, shortened: as §1

Tozasertib + Pictilisib = compound: Cc1cc(Nc2cc(N3CCN(C)CC3)nc(Sc3ccc(NC(=O)C4CC4)cc3)n2)n[nH]1 [Tozasertib] + CS(=O)(=O)N1CCN(Cc2cc3nc(-c4cccc5[nH]ncc45)nc(N4CCOCC4)c3s2)CC1 [Pictilisib] (partner 1 µM)
Procedure, shortened: as §1

Tozasertib + Crizotinib = compound: Cc1cc(Nc2cc(N3CCN(C)CC3)nc(Sc3ccc(NC(=O)C4CC4)cc3)n2)n[nH]1 [Tozasertib] + C[C@@H](Oc1cc(-c2cnn(C3CCNCC3)c2)cnc1N)c1c(Cl)ccc(F)c1Cl [Crizotinib] (partner 1 µM)
Procedure, shortened: as §1

Tozasertib = compound: Cc1cc(Nc2cc(N3CCN(C)CC3)nc(Sc3ccc(NC(=O)C4CC4)cc3)n2)n[nH]1 [Tozasertib]
Procedure, shortened: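 Viability was defined as treated-well nuclei divided by vehicle-well nuclei, with the median taken over replicate plates. Cells from lung cancer lines sat overnight at 37 °C in 1536-well plates, received five √10-spaced library-drug doses by pinning on vehicle-anchored plates, and grew 5 days without medium change before one-step fixation, permeabilisation and Hoechst staining, 4× imaging and MetaXpress nuclear counts. Only plates with control CV under 25% and at least one doubling were kept.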

Tozasertib + Dasatinib = compound: Cc1cc(Nc2cc(N3CCN(C)CC3)nc(Sc3ccc(NC(=O)C4CC4)cc3)n2)n[nH]1 [Tozasertib] + Cc1nc(Nc2ncc(C(=O)Nc3c(C)cccc3Cl)s2)cc(N2CCN(CCO)CC2)n1 [Dasatinib] (partner 0.075 µM)
Procedure, shortened: as §1

Tozasertib + OSI-027 = compound: Cc1cc(Nc2cc(N3CCN(C)CC3)nc(Sc3ccc(NC(=O)C4CC4)cc3)n2)n[nH]1 [Tozasertib] + COc1cccc2cc(-c3nc([C@H]4CC[C@H](C(=O)O)CC4)n4ncnc(N)c34)[nH]c12 [OSI-027] (partner 0.5 µM)
Procedure, shortened: as §1

Tozasertib + Phenformin = compound: Cc1cc(Nc2cc(N3CCN(C)CC3)nc(Sc3ccc(NC(=O)C4CC4)cc3)n2)n[nH]1 [Tozasertib] + N=C(N)NC(=N)NCCc1ccccc1 [Phenformin] (partner 250 µM)
Procedure, shortened: as §1

Tozasertib + Luminespib = compound: Cc1cc(Nc2cc(N3CCN(C)CC3)nc(Sc3ccc(NC(=O)C4CC4)cc3)n2)n[nH]1 [Tozasertib] + CCNC(=O)c1noc(-c2cc(C(C)C)c(O)cc2O)c1-c1ccc(CN2CCOCC2)cc1 [Luminespib] (partner 0.01 µM)
Procedure, shortened: as §1

NCI-H1299
relative viability (Tozasertib + Lapatinib; first compound 0.004 µM): 1.03
relative viability (Tozasertib + Lapatinib; first compound 0.01265 µM): 0.947
relative viability (Tozasertib + Lapatinib; first compound 0.1265 µM): 0.703
relative viability (Tozasertib + Navitoclax; first compound 0.004 µM): 1.1
relative viability (Tozasertib + Navitoclax; first compound 0.01265 µM): 1.04
relative viability (Tozasertib + Navitoclax; first compound 0.04 µM): 1.06
relative viability (Tozasertib + Navitoclax; first compound 0.1265 µM): 1.07
relative viability (Tozasertib + Bortezomib; first compound 0.004 µM): 1.07
relative viability (Tozasertib + Bortezomib; first compound 0.01265 µM): 1.01
relative viability (Tozasertib + Bortezomib; first compound 0.04 µM): 1.02
relative viability (Tozasertib + Bortezomib; first compound 0.1265 µM): 1.03
relative viability (Tozasertib + Foretinib; first compound 0.004 µM): 1.17
relative viability (Tozasertib + Foretinib; first compound 0.01265 µM): 1.07
relative viability (Tozasertib + Foretinib; first compound 0.04 µM): 1.08
relative viability (Tozasertib + Foretinib; first compound 0.1265 µM): 0.499
relative viability (Tozasertib + Olaparib; first compound 0.004 µM): 0.982
relative viability (Tozasertib + Olaparib; first compound 0.01265 µM): 0.939
relative viability (Tozasertib + Olaparib; first compound 0.04 µM): 0.943
relative viability (Tozasertib + Olaparib; first compound 0.1265 µM): 0.961
relative viability (Tozasertib + Alpelisib; first compound 0.004 µM): 1.08
relative viability (Tozasertib + Alpelisib; first compound 0.01265 µM): 1.13
relative viability (Tozasertib + Alpelisib; first compound 0.04 µM): 1.04
relative viability (Tozasertib + Alpelisib; first compound 0.1265 µM): 1.05
relative viability (Tozasertib + Linsitinib; first compound 0.004 µM): 0.952
relative viability (Tozasertib + Linsitinib; first compound 0.01265 µM): 0.979
relative viability (Tozasertib + Linsitinib; first compound 0.04 µM): 0.988
relative viability (Tozasertib + Linsitinib; first compound 0.1265 µM): 0.597
relative viability (Tozasertib + Pictilisib; first compound 0.004 µM): 0.951
relative viability (Tozasertib + Pictilisib; first compound 0.01265 µM): 0.808
relative viability (Tozasertib + Pictilisib; first compound 0.04 µM): 0.75
relative viability (Tozasertib + Pictilisib; first compound 0.1265 µM): 0.615
relative viability (Tozasertib + Crizotinib; first compound 0.004 µM): 0.998
relative viability (Tozasertib + Crizotinib; first compound 0.01265 µM): 0.996
relative viability (Tozasertib + Crizotinib; first compound 0.04 µM): 0.952
relative viability (Tozasertib + Crizotinib; first compound 0.1265 µM): 0.761
relative viability (Tozasertib; 0.004 µM): 1.04
relative viability (Tozasertib; 0.01265 µM): 1.02
relative viability (Tozasertib; 0.04 µM): 1.01
relative viability (Tozasertib; 0.1265 µM): 1.02

NCI-H1623
relative viability (Tozasertib + Dasatinib; first compound 0.004 µM): 0.549
relative viability (Tozasertib + Dasatinib; first compound 0.01265 µM): 0.515
relative viability (Tozasertib + Dasatinib; first compound 0.04 µM): 0.536
relative viability (Tozasertib + Dasatinib; first compound 0.1265 µM): 0.556
relative viability (Tozasertib + OSI-027; first compound 0.004 µM): 0.45
relative viability (Tozasertib + OSI-027; first compound 0.01265 µM): 0.428
relative viability (Tozasertib + OSI-027; first compound 0.04 µM): 0.487
relative viability (Tozasertib + OSI-027; first compound 0.1265 µM): 0.453
relative viability (Tozasertib + Phenformin; first compound 0.004 µM): 0.552
relative viability (Tozasertib + Phenformin; first compound 0.01265 µM): 0.541
relative viability (Tozasertib + Phenformin; first compound 0.04 µM): 0.583
relative viability (Tozasertib + Phenformin; first compound 0.1265 µM): 0.526
relative viability (Tozasertib + Foretinib; first compound 0.004 µM): 0.781
relative viability (Tozasertib + Foretinib; first compound 0.01265 µM): 0.829
relative viability (Tozasertib + Foretinib; first compound 0.04 µM): 0.898
relative viability (Tozasertib + Foretinib; first compound 0.1265 µM): 0.761
relative viability (Tozasertib + Luminespib; first compound 0.004 µM): 0.43
relative viability (Tozasertib + Luminespib; first compound 0.04 µM): 0.473
relative viability (Tozasertib + Luminespib; first compound 0.1265 µM): 0.505
relative viability (Tozasertib; 0.004 µM): 0.859
relative viability (Tozasertib; 0.01265 µM): 0.965
relative viability (Tozasertib; 0.04 µM): 0.966
relative viability (Tozasertib; 0.1 µM, anchor plate): 0.434
relative viability (Tozasertib; 0.1265 µM): 0.929
